The values that follow come from PMC6804419, “Synthesis and Inhibitory Effect of Some Indole‐Pyrimidine Based Hybrid Heterocycles on α‐Glucosidase and α‐Amylase as Potential Hypoglycemic Agents” (ChemistryOpen, 2019).

Data set [1] concerns the target T1, α-glucosidase type 1 from baker's yeast (Saccharomyces cerevisiae, UniProt P53341).
T1 construct: purchased Sigma-Aldrich G5003
In words: α-Glucosidase inhibition assay. The format is biochemical. From the text: (§1) α‐glucosidase type 1 from baker‘s yeast (G5003; Sigma‐Aldrich, St. Louis, MO, USA), p‐nitrophenyl α‐D‐glucopyranoside (N1377, Sigma‐Aldrich), sodiumphosphatemonobasic (S3139, Sigma‐Aldrich), sodiumphosphatedibasic (S5136, Sigma‐Aldrich), andacarbose (A8980, Sigma‐Aldrich), DMSO (Dimethylsulfoxide), α‐amylase from Aspergillus oryzae (Sigma Aldrich), starch, DNS (3, 5‐dinitrosalicylic acid), sodiumpotassiumtartratetetrahydrate.
Concentration of α‐glucosidase and substrate. Sodium phosphate buffer (0.1 M) was adjusted by 0.1 N HCl to pH 7.0 with a pH meter (Thermo Fisher Scientific Inc., Waltham, MA, USA). p‐Nitrophenyl α‐D‐glucopyranoside (10 mM) and α‐glucosidase solutions (1 U/ml) were solubilized in 0.1 M sodium phosphate buffer (pH 7.0). All the reagents were manufactured shortly before use and warmed to 37 °C in a water bath. Sodium phosphate buffer (0.1 M, 158 μl per well) was added to a 96‐well plate. α‐Glucosidase (20 μl) and 2 μl of sample were added to 20 μl of p‐nitrophenyl α‐D‐glucopyranoside. In the 200‐μl final reaction volume (0.02 U/well, 0.1 U/ml) the substrate concentration was adjusted to […]. The background signal due to the sample color was measured at 405 nm with the PerkinElmer Wallac Victor3 spectrophotometer (PerkinElmer, Waltham, MA, USA) prior to adding the enzyme. Immediately following α‐glucosidase addition, absorbance was measured at 405 nm 8 times at 1‐min intervals.16
(§2) The inhibitory concentration 50 % (IC50) values were determined from the plots of percent inhibition versus log inhibitor concentration and calculated by logarithmic regression analysis from the mean inhibitory values.

Data set [2] addresses T2, α-amylase from Aspergillus oryzae (Aspergillus oryzae, UniProt P0C1B3).
T2 construct: purchased Sigma Aldrich
In words: α-Amylase assay. In kind it is biochemical. The procedure: as §1
Briefly, 250 μL (0.4 mg/mL) was preincubated with 250 μL of α‐amylase solution for 10 min at 25 °C in one set of tubes. In another set of tubes α‐amylase was preincubated with 250 μL of phosphate buffer (pH 6.9). 250 μL of starch solution at increasing concentrations (0.2–1 % (w/v)) was added to both sets of reaction mixtures to start the reaction. The mixture was then incubated for 10 min at 25 °C and then boiled for 15 min after the addition of 250 μL of DNS to stop the reaction. The amount of reducing sugars released was determined spectrophotometrically using a maltose standard curve and converted to reaction velocities.
as §2

T1 sequence (P53341 whole entry): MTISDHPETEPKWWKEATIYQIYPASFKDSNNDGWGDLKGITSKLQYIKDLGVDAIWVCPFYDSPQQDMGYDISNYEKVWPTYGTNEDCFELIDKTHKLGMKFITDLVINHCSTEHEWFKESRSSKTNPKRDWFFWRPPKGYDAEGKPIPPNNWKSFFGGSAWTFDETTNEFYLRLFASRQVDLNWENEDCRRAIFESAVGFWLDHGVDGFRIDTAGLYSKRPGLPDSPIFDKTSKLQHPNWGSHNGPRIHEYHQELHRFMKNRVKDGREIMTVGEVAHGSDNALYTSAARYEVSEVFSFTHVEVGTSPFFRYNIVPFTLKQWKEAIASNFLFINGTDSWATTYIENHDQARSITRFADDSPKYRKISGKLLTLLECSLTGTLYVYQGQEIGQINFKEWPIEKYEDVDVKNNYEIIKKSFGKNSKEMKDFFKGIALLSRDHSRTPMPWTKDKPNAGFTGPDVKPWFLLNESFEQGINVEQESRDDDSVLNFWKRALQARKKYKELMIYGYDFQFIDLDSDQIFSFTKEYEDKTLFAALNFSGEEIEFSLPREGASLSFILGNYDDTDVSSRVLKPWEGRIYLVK

One may read the melting point as the temperature, or range, at which the solid turns liquid. Broadly, the IC50 is the concentration at which inhibition is half-maximal. Higher therefore signals weaker potency. The molecule `CN1C(=O)C(C(CC(=O)c2cn(C)c3ccccc23)c2ccccc2)C(=O)N(C)C1=O` (centres unmarked) [5a, 1,3‐Dimethyl‐5‐(3‐(1‐methyl‐1H‐indol‐3‐yl)‐3‐oxo‐1‐phenylpropyl)pyrimidine‐2,4,6(1H,3H,5H)‐trione] returned a melting point of 185 to 186 °C. Moreover, half-maximal inhibition in data set [1] (IC50) was put at 65.14 ± 0.17 µM. The IC50 in data set [2] was 93.25 ± 0.1 µM.

As to `CCn1cc(C(=O)CC(c2ccc(C)cc2)C2C(=O)N(C)C(=O)N(C)C2=O)c2ccccc21` (centres unmarked) [5b], the melting point fell in the range of 155 to 156 °C. Also, in data set [1], the IC50 is 53.15 ± 0.12 µM. This molecule also had an IC50 in data set [2] of 80.17 ± 0.05 µM.

In turn, `CCn1cc(C(=O)CC(c2ccc(Cl)cc2)C2C(=O)N(C)C(=O)N(C)C2=O)c2ccccc21` (centres unmarked) [5c, 5‐(1‐(4‐Chlorophenyl)‐3‐(1‐ethyl‐1H‐indol‐3‐yl)‐3‐oxopropyl)‐1,3‐dimethylpyrimidine‐2,4,6(1H,3H,5H)‐trione] returned a melting point of 166 to 167 °C. In addition, in data set [1], the IC50 was found to be 49.75 ± 0.01 µM. In data set [2], this molecule registered an IC50 of 71.24 ± 0.2 µM.

Regarding `CCn1cc(C(=O)CC(c2ccc(Cl)cc2Cl)C2C(=O)N(C)C(=O)N(C)C2=O)c2ccccc21` (centres unmarked) [5d, 5‐(1‐(2,4‐Dichlorophenyl)‐3‐(1‐ethyl‐1H‐indol‐3‐yl)‐3‐oxopropyl)‐1,3‐dimethylpyrimidine‐2,4,6(1H,3H,5H)‐trione], the melting point was in the range of 149 to 150 °C. For the same molecule, inhibition in data set [1] was half-maximal at 58.21 ± 0.09 µM (IC50). In addition, the IC50 in data set [2] was 96.42 ± 0.22 µM.

In turn, `CCn1cc(C(=O)CC(c2ccc(OC)cc2)C2C(=O)N(C)C(=O)N(C)C2=O)c2ccccc21` (centres unmarked) [5e, 5‐(3‐(1‐Ethyl‐1H‐indol‐3‐yl)‐1‐(4‐methoxyphenyl)‐3‐oxopropyl)‐1,3‐dimethylpyrimidine‐2,4,6(1H,3H,5H)‐trione] displayed a melting point of 128 to 129 °C. For the same molecule, the midpoint of inhibition in data set [1], the IC50, lay at 61.4 ± 0.78 µM. This molecule had an IC50 in data set [2] of 88.45 ± 0.32 µM.

The molecule `CCn1cc(C(=O)CC(c2ccc(Br)cc2)C2C(=O)N(C)C(=O)N(C)C2=O)c2ccccc21` (centres unmarked) [5f, 5‐(1‐(4‐Bromophenyl)‐3‐(1‐ethyl‐1H‐indol‐3‐yl)‐3‐oxopropyl)‐1,3‐dimethylpyrimidine‐2,4,6(1H,3H,5H)‐trione] had a melting point of 159 to 160 °C. In addition, in data set [1], the IC50 turned out to be 53.15 ± 0.12 µM. Moreover, the IC50 in data set [2] was determined as 78.25 ± 0.1 µM.

In the case of `CCn1cc(C(=O)CC(c2ccc(F)cc2)C2C(=O)N(C)C(=O)N(C)C2=O)c2ccccc21` (centres unmarked) [5g, 5‐(3‐(1‐Ethyl‐1H‐indol‐3‐yl)‐1‐(4‐fluorophenyl)‐3‐oxopropyl)‐1,3‐dimethylpyrimidine‐2,4,6(1H,3H,5H)‐trione], the melting point was 185 to 186 °C. The molecule further displayed an IC50 in data set [1] of 69.75 ± 0.01 µM. This molecule also had an IC50 in data set [2] of 86.42 ± 0.22 µM.

Turning to `CCn1cc(C(=O)CC(c2cccc(F)c2)C2C(=O)N(C)C(=O)N(C)C2=O)c2ccccc21` (centres unmarked) [5h, 5‐(3‐(1‐Ethyl‐1H‐indol‐3‐yl)‐1‐(3‐fluorophenyl)‐3‐oxopropyl)‐1,3‐dimethylpyrimidine‐2,4,6(1H,3H,5H)‐trione], the melting point lay within 188 to 189 °C. In addition, in data set [1], half-maximal inhibition (IC50) required 61.1 ± 0.42 µM. Further, the IC50 in data set [2] was 89.45 ± 0.44 µM.

In turn, `CCn1cc(C(=O)CC(c2cccc(C)c2)C2C(=O)N(C)C(=O)N(C)C2=O)c2ccccc21` (centres unmarked) [5i, 5‐(3‐(1‐Ethyl‐1H‐indol‐3‐yl)‐3‐oxo‐1‐(m–tolyl)propyl)‐1,3‐dimethylpyrimidine‐2,4,6(1H,3H,5H)‐trione] showed a melting point of 125 to 126 °C. Moreover, the IC50 in data set [1] was 73.15 ± 0.12 µM. Further, in data set [2], it took 95.25 ± 0.1 µM to reach half-maximal inhibition (IC50).

`CCn1cc(C(=O)CC(c2cccc(Br)c2)C2C(=O)N(C)C(=O)N(C)C2=O)c2ccccc21` (centres unmarked) [5j, 5‐(1‐(3‐Bromophenyl)‐3‐(1‐ethyl‐1H‐indol‐3‐yl)‐3‐oxopropyl)‐1,3‐dimethylpyrimidine‐2,4,6(1H,3H,5H)‐trione] yielded a melting point of 130 to 131 °C. In data set [1], half-maximal inhibition (IC50) was put at 77.05 ± 0.04 µM. In data set [2], this molecule came in with an IC50 of 86.42 ± 0.22 µM.

`CCn1cc(C(=O)CC(c2ccc(C(F)(F)F)cc2)C2C(=O)N(C)C(=O)N(C)C2=O)c2ccccc21` (centres unmarked) [5k, 5‐(3‐(1‐Ethyl‐1H‐indol‐3‐yl)‐3‐oxo‐1‐(4‐(trifluoromethyl)phenyl)propyl)‐1,3‐dimethylpyrimidine‐2,4,6(1H,3H,5H)‐trione] showed a melting point of 168 to 169 °C. Besides, the IC50 in data set [1] came to 20.5 ± 0.44 µM. In data set [2], this molecule returned an IC50 of 47.11 ± 0.09 µM.

`CCn1cc(C(=O)CC(c2cccs2)C2C(=O)N(C)C(=O)N(C)C2=O)c2ccccc21` (centres unmarked) [5l, 5‐(3‐(1‐Ethyl‐1H‐indol‐3‐yl)‐3‐oxo‐1‐(thiophen‐2‐yl)propyl)‐1,3‐dimethylpyrimidine‐2,4,6(1H,3H,5H)‐trione] had a melting point of 154 to 155 °C. The same molecule showed an IC50 in data set [1] of 22.3 ± 0.48 µM. In data set [2], this molecule displayed an IC50 of 35.4 ± 0.6 µM.

Take `CCn1cc(C(=O)CC(c2ccco2)C2C(=O)N(C)C(=O)N(C)C2=O)c2ccccc21` (centres unmarked) [5m, 5‐(3‐(1‐Ethyl‐1H‐indol‐3‐yl)‐1‐(furan‐2‐yl)‐3‐oxopropyl)‐1,3‐dimethylpyrimidine‐2,4,6(1H,3H,5H)‐trione]: the melting point fell in the range of 188 to 189 °C. The IC50 in data set [1] is 64.35 ± 0.08 µM. Further, the IC50 in data set [2] is 82.15 ± 0.5 µM.

In turn, `CCn1cc(C(=O)CC(c2cc(OC)c(OC)c(OC)c2)C2C(=O)N(C)C(=O)N(C)C2=O)c2ccccc21` (centres unmarked) [5n, 5‐(3‐(1‐Ethyl‐1H‐indol‐3‐yl)‐3‐oxo‐1‐(3,4,5‐trimethoxyphenyl)propyl)‐1,3‐dimethylpyrimidine‐2,4,6(1H,3H,5H)‐trione] came in with a melting point of 170 to 171 °C. The molecule further returned an IC50 in data set [1] of 53.15 ± 0.12 µM. In data set [2], this molecule showed an IC50 of 93.25 ± 0.1 µM.

Regarding `CCn1cc(C(=O)CC(c2ccc3ccccc3c2)C2C(=O)N(C)C(=O)N(C)C2=O)c2ccccc21` (centres unmarked) [5o, 5‐(3‐(1‐Ethyl‐1H‐indol‐3‐yl)‐1‐(naphthalen‐2‐yl)‐3‐oxopropyl)‐1,3‐dimethylpyrimidine‐2,4,6(1H,3H,5H)‐trione], the IC50 in data set [1] came out at 13.02 ± 0.01 µM; in data set [2], 21.7 ± 0.82 µM.

Take `CCn1cc(C(=O)CC(c2ccc([N+](=O)[O-])cc2)C2C(=O)N(C)C(=O)N(C)C2=O)c2ccccc21` (centres unmarked) [5q, 5‐(3‐(1‐Ethyl‐1H‐indol‐3‐yl)‐1‐(4‐nitrophenyl)‐3‐oxopropyl)‐1,3‐ dimethylpyrimidine‐2,4,6(1H,3H,5H)‐trione]: the melting point was 198 to 199 °C. In data set [1], this molecule registered an IC50 of 31.12 ± 0.11 µM. The same molecule gave an IC50 in data set [2] of 63 ± 0.61 µM.
